# Test results published in publication PMC10746103, “Development of a HPLC-MS/MS Method to Assess the Pharmacokinetics and Tumour Distribution of the Dimethylarginine Dimethylaminohydrolase 1 Inhibitors ZST316 and L-257 in a Xenograft Model of Triple-Negative Breast Cancer in Mice” (Molecules, 2023).
# Several values for one entry are separate records, joined by “and”; a condition that tells them apart may be missing. Equal values may be shown once. Entries after “also recorded” stand apart in the source; their conditions may differ. Read-outs that look alike come from different tables or passages of the source.
# Tests used:
# [1] = Stability of ZST316 and L-257 in frozen plasma; format: in vitro ADME, mice; settings: for Mean found value, Stability −20 °C / Accuracy (%), Stability −20 °C: plasma QC, one month at −20 °C; for Mean found value, Stability −20 °C: n=3; for Accuracy (%), Stability −20 °C: percent of nominal
# Procedure: The stability of ZST316 and L-257 in plasma was assessed by analysing QC samples containing both compounds after prolonged storage in the same conditions of the study samples.
# Stability was determined by analysing 3 QCs per concentration level immediately after the preparation, and 3 QCs per concentration level after one month of storage at −20 °C. The analytes were considered stable at each QC concentration when the freshly prepared samples and the stability test samples differed by no more than 15% from the nominal concentrations.
# [2] = molecular target: DDAH1; settings: cited from earlier work
# [3] = Plasma pharmacokinetics of ZST316 and L-257 after intraperitoneal ZST316 in MDA-MB-231 xenograft mice (HPLC-MS/MS); format: in vivo, SCID mice
# Procedure: (§1) Six-week-old female severe combined immunodeficiency disease (SCID) mice (n = 24; Charles River Laboratories Italia S.r.L., Calco, Lecco, Italy), were housed under rigorous standards and handled under pathogen-free conditions in the Animal Care Facilities of the Mario Negri Institute for Pharmacological Research (Milan, Italy).
# (§2) Two ×10^6 (in 10 μL) MDA-MB-231 TNBC cells were transplanted into the mammary fat pad. Tumour growth was regularly monitored with a calliper and treatment with ZST316 was given when the tumour volume reached 400–500 mm^3. Mice received either a single dose (acute treatment) or a daily dose of ZST316 30 mg/Kg intraperitoneally for five days (chronic treatment).
# (§3) Plasma and tumour tissue (n = 3 mice/each time point) were sampled at 1, 8 and 24 h after treatment (on day 5 for the chronic treatment). To collect plasma, mice were anesthetized by isoflurane, the blood was drained from the retro-orbital plexus into heparinised tubes and centrifuged for 10 min at 4000× g at 4 °C. Tumours were collected and immediately frozen. Plasma and tumour samples were stored at −20 °C until analysis.
# To assay ZST316 and L-257, 10 μL of IS (ZST152 WS: 500 ng/mL) were added to 100 μL of study plasma samples, standards, and QCs in a polypropylene tube. The samples were then added with 10 μL of NH4COOH 50 mM, mixed and added with 400 μL CH3OH:0.1% HCOOH, vortex mixed again and centrifuged at 13,200 rpm for 10 min at 4 °C. The supernatant was transferred to a 1.5 mL Eppendorf tube, dried under nitrogen flow and reconstituted with 100 μL of mobile phase (MP) A:B (1:1, v/v). Finally, the samples were centrifuged at 13,200 rpm for 10 min at 4 °C and the supernatant transferred into vials for HPLC-MS/MS analysis.
# (§4) Reversed-phase chromatography was performed under gradient conditions with separation on a HILIC column, C18, 3 μm, 100 A, 2.1 × 150 mm, Waters (Milford, MA, USA), coupled with a 3 μm, 3.9 × 5.0 mm guard column of the same material at the flow rate of 0.2 mL/min. Gradient features were: 10% mobile phase (MP) A (NH4HCO2 10 mM, 10% CH3CN, 0.1% HCOOH) and 90% MP B (CH3CN, 0.1% HCOOH) as initial constant condition; then to 90% MP A in 6 min and constant condition for 1.5 min. Return to start condition in 0.5 min and conditioning for 5.5 min. Total run time: 13.5 min. Analyte detection and quantification were performed using tandem mass spectrometry (MS/MS) operating in positive ionization mode as previously reported for ZST316 and ZST152 [31].
# [4] = Tumour distribution of ZST316 and L-257 after intraperitoneal ZST316 in MDA-MB-231 TNBC xenograft (HPLC-MS/MS); format: in vivo, SCID mice; settings: for time intra-tumour concentration remained above the IC50 and Ki values for DDAH1 inhibition: estimated
# Procedure: as §1, §2, §3
# Control MDA-MB-231 TNBC cell tumours were homogenized with NH4COOH 50 mM (1:4, w:v). The homogenate (90 μL) was spiked with 5 μL of ZST316 and L-257 working solutions prepared in the range of 100–10,000 ng/mL generating seven tumour calibration standards in the range 25–5000 ng/g. The calibration curve included also a blank and a zero blank standard plasma sample (processed with IS). To prepare QC samples, 90 μL of the homogenate was mixed with an appropriate amount of QC working solutions to obtain QC plasma samples at the nominal concentration of 75, 375, and 1250 ng/g.
# The procedure was similar to that described for plasma in Section 3.3.2.
# as §4
# [5] = Tolerability of chronic intraperitoneal ZST316 treatment; format: in vivo; settings: ZST316 30 mg/Kg i.p. daily for five days
# Procedure: as §2
# [6] = design: method as in PMID 35164277; settings: four-week-old FVB mice; oral, intravenous and intraperitoneal administration; cited from earlier work
# [7] = acute (single dose) ZST316 30 mg/Kg i.p., 1 h
# [8] = acute ZST316 30 mg/Kg i.p., 1 h, 30 mg/kg
# [9] = acute ZST316 30 mg/Kg i.p., 8 h, 30 mg/kg
# [10] = acute ZST316 30 mg/Kg i.p., 8 h, n=3, 30 mg/kg
# [11] = acute ZST316 30 mg/Kg i.p., 24 h, 30 mg/kg
# [12] = acute ZST316 30 mg/Kg i.p., approximately estimated due to limited time points
# [13] = chronic (five-day) ZST316 30 mg/Kg i.p. daily, 1 h
# [14] = chronic (five-day) ZST316 30 mg/Kg i.p. daily, 24 h
# [15] = chronic ZST316 30 mg/Kg i.p. daily
# [16] = chronic ZST316 30 mg/Kg i.p. daily, day 5, 1 h, 30 mg/kg
# [17] = chronic ZST316 30 mg/Kg i.p. daily, day 5, 8 h, 30 mg/kg
# [18] = chronic ZST316 30 mg/Kg i.p. daily, day 5, 8 h, n=3, 30 mg/kg
# [19] = chronic ZST316 30 mg/Kg i.p. daily, day 5, 24 h, 30 mg/kg
# [20] = chronic ZST316 30 mg/Kg i.p. daily, approximately estimated due to limited time points
# [21] = range over acute and chronic treatment
smiles,measurement,setting,value
COCCNC(N)=NCCC[C@H](N)C(=O)NS(C)(=O)=O [ZST316],stability in frozen plasma,[1]; at least one month at −20 °C,stable
same,"Mean found value, Stability −20 °C",[1]; actual value 15.00 ng/mL,14.3 ng/mL
same,"Accuracy (%), Stability −20 °C",[1]; actual value 15.00 ng/mL,95.4%
same,"Mean found value, Stability −20 °C",[1]; actual value 75.00 ng/mL,72.4 ng/mL
same,"Accuracy (%), Stability −20 °C",[1]; actual value 75.00 ng/mL,96.5%
same,"Mean found value, Stability −20 °C",[1]; actual value 250.00 ng/mL,240.0 ng/mL
same,"Accuracy (%), Stability −20 °C",[1]; actual value 250.00 ng/mL,96.0%
same,Ki expressed as concentration,"[2]; equivalent of 261 nM, personal data",0.0803 µg/mL
same,Ki,[2]; original value,1000 nM
same,Ki,"[2]; revised using a more performant assay, personal data",261 nM
same,accumulation in plasma and tumour during chronic treatment,"[3]; ZST316 30 mg/Kg i.p. daily for five days, day 5 vs day 1, 30 mg/kg",without accumulation; also recorded: No accumulation
same,mean plasma concentration,[3]; [7],2.79 µg/mL
same,mean plasma concentration,"[3]; acute (single dose) ZST316 30 mg/Kg i.p., 24 h, 30 mg/kg",0.05 µg/mL and 0.04 µg/mL
same,Cmax,[3]; acute ZST316 30 mg/Kg i.p.,9.03 µM
same,Cmax plasma,[3]; acute ZST316 30 mg/Kg i.p.,2790 ng/mL
same,Plasma AUC1–24 h,[3]; acute ZST316 30 mg/Kg i.p.,0.050
same,Plasma AUC1–24 h,[3]; acute ZST316 30 mg/Kg i.p. (day 1),15.3 µg·h/mL
same,"plasma concentration, individual mice",[3]; [8],3000 ng/mL and 2150 ng/mL and 3210 ng/mL and 9.70 µM and 6.95 µM and 10.38 µM
same,"plasma concentration, individual mice",[3]; [9],162 ng/mL and 147 ng/mL and 0.38 µM and 0.52 µM and 0.48 µM and 119 ng/mL
same,mean plasma concentration,[3]; [10],143 ng/mL and 0.46 μM
same,"plasma concentration, individual mice",[3]; [11],64.2 ng/mL and 53.7 ng/mL and 25 ng/mL and 0.21 µM and 0.17 µM and 0.08 µM
same,half-life plasma,[3]; [12],4.4 h
same,mean plasma concentration,[3]; [13],2.22 µg/mL
same,mean plasma concentration,[3]; [14],0.12 µg/mL
same,Cmax,[3]; [15],7.18 µM
same,Cmax plasma,[3]; [15],2220 ng/mL
same,Plasma AUC1–24 h,[3]; [15],0.040
same,Plasma AUC1–24 h,[3]; chronic ZST316 30 mg/Kg i.p. daily (day 5),12.4 µg·h/mL
same,"plasma concentration, individual mice",[3]; [16],2440 ng/mL and 2030 ng/mL and 2200 ng/mL and 7.89 µM and 6.57 µM and 7.12 µM
same,"plasma concentration, individual mice",[3]; [17],81.7 ng/mL and 54.7 ng/mL and 41.8 ng/mL and 0.26 µM and 0.18 µM and 0.14 µM
same,mean plasma concentration,[3]; [18],59.4 ng/mL and 0.19 μM
same,"plasma concentration, individual mice",[3]; [19],101 ng/mL and 173 ng/mL and 86.3 ng/mL and 0.33 µM and 0.56 µM and 0.28 µM
same,half-life plasma,[3]; [20],7.1 h
same,half-life plasma,[3]; [21],4.4 to 7.1 h
same,measured concentration in unknown study plasma sample (Figure 2),"[3]; representative chromatogram, sample taken at 1 h after acute treatment (b8)",2200 ng/mL
same,mean intra-tumour concentration,[4]; [7],2.0 µg/g
same,mean intra-tumour concentration,"[4]; acute (single dose) ZST316 30 mg/Kg i.p., 24 h",0.04 µg/g
same,tumour AUC,[4]; acute ZST316 30 mg/Kg i.p.,11.4 µg·h/g
same,Cmax tumour,"[4]; acute ZST316 30 mg/Kg i.p., 30 mg/kg",2.00 μg/g and 6.47 μM
same,"tumour concentration, individual mice",[4]; [8],2470 ng/g and 1210 ng/g and 2320 ng/g and 7.99 µM and 3.91 µM and 7.50 µM
same,"tumour concentration, individual mice",[4]; [9],109 ng/g and 173 ng/g and 0.48 µM and 0.35 µM and 0.56 µM and 149 ng/g
same,mean tumour concentration,[4]; [10],144 ng/g and 0.46 μM
same,"tumour concentration, individual mice",[4]; [11],37.3 ng/g and 32.2 ng/g and 49.0 ng/g and 0.12 µM and 0.10 µM and 0.16 µM
same,half-life tumour,[4]; [12],4.5 h
same,time intra-tumour concentration remained above the IC50 and Ki values for DDAH1 inhibition,[4]; after acute ZST316 treatment,15.5 h
same,time intra-tumour concentration remained above the IC50 and Ki values for DDAH1 inhibition,[4]; after chronic ZST316 treatment,16.5 h
same,mean intra-tumour concentration,[4]; [13],2.09 µg/g
same,mean intra-tumour concentration,[4]; [14],0.06 µg/g
same,tumour AUC,[4]; [15],11.8 µg·h/g
same,"tumour concentration, individual mice",[4]; [16],2490 ng/g and 1750 ng/g and 2020 ng/g and 8.05 µM and 5.66 µM and 6.53 µM
same,"tumour concentration, individual mice",[4]; [17],110 ng/g and 146 ng/g and 0.39 µM and 0.36 µM and 0.47 µM and 120 ng/g
same,mean tumour concentration,[4]; [18],125 ng/g and 0.41 μM
same,mean tumour concentration,"[4]; chronic ZST316 30 mg/Kg i.p. daily, day 5, 24 h",57.0 ng/g
same,"tumour concentration, individual mice",[4]; [19],37.8 ng/g and 108 ng/g and 25.2 ng/g and 0.12 µM and 0.35 µM and 0.08 µM
same,mean tumour concentration,"[4]; chronic ZST316 30 mg/Kg i.p. daily, day 5, 24 h, n=3",0.18 µM
same,Cmax tumour,"[4]; chronic ZST316 30 mg/Kg i.p. daily, 30 mg/kg",2.09 μg/g and 6.76 μM
same,half-life tumour,[4]; [20],5.0 h
same,half-life tumour,[4]; [21],4.5 to 5.0 h
same,measured concentration in unknown study tumour sample (Figure 3),"[4]; representative chromatogram, sample taken at 24 h after acute treatment (b8)",37.3 ng/g
same,tolerability / signs of toxicity,[5],"well tolerated, and no signs of toxicity were recorded"
same,tolerability,[6],excellent tolerability
